Measured values: US11154559B2, “Methods and compositions of bile acids” (The General Hospital Corporation, priority 2011, dated 2021)

Assay: Effect of subcutaneous TUDCA on weight gain and food intake in mice on a high-fat diet
Type: in vivo, C57BL/6J mice
Settings: 500 mg/kg s.c. twice a week vs placebo
Procedure: To examine the effect of circulating bile acids on body weight gain, C57BL/6J mice on a high-fat diet (HFD) were given subcutaneous injections of tauroursodeoxycholic acid (TUDCA, 500 mg/kg) or placebo for 10 weeks (N=6 per group). TUDCA was prepared daily in 0.15 M NaHCO3 (pH adjusted to 7.4). TUDCA or placebo (0.15 M NaHCO3, pH 7.4) was administered twice a week (Monday/Thursday) as 10 μl solution/g of body weight. Body weight (BW) was measured and recorded immediately before each injection and used to calculate the TUDCA or placebo dose to be administered.
Animals were 10 weeks of age at the start of the experiment (BW=32.6 g±2.6) and were on a […] from weaning that provided 60% of total energy as fat, 20% as carbohydrate, and 20% as protein (D12492 diet; Research Diets, New Brunswick, N.J.). Animals were individually housed on wire floors without bedding and maintained on a 12-hour light-dark cycle (lights on at 0700 hours) in a facility with an ambient temperature of 19-22° C.
Body weight was recorded twice a week, food intake was obtained weekly, and fasting blood glucose was measured every other week.

In the case of `C[C@H](CCC(=O)NCCS(=O)(=O)O)[C@H]1CC[C@H]2[C@@H]3[C@@H](O)C[C@@H]4C[C@H](O)CC[C@]4(C)[C@H]3CC[C@]12C` [TUDCA, tauroursodeoxycholic acid], the “percent weight change from baseline” value (high-fat diet, FIG. 35) is reported as “trend toward decreased weight”, the weight gain (high-fat diet, not statistically significant, FIG. 34) is reported as “trend towards decreased weight gain” and the weekly food intake (FIG. 36) is reported as “similar”. The cumulative food intake (FIG. 37) was “similar”.
